From publication PMC10285738, “Identification of macrocyclic peptides which activate bacterial cylindrical proteases” (RSC Medicinal Chemistry, 2023) come the findings set out here.

The nature of data set [1]: two-component Cys/Cys stapling: bis-thiol-Michael addition to 4,6-divinylpyrimidine bearing N-methylglycine (constraint 1 = A), 1.1 equiv; TCEP 1.1 equiv added if the peptide had oxidised. As to conditions: the molecule shown is the open-chain precursor, 100 mM phosphate buffer pH 7.4 with DMSO from peptide and staple stocks, 2.8 mM, 22.0 °C, 2 steps.
Data set [2] is described as follows: two-component Cys/Cys stapling: bis-thioether alkylation with 1,3-dichloroacetone (B), 1.1 equiv; TCEP 1.1 equiv added if the peptide had oxidised. As to conditions: the molecule shown is the open-chain precursor, 100 mM phosphate buffer pH 7.4 with DMSO (peptide stock) and MeCN (staple stock), 2.7 mM, 22.0 °C, 2 steps.
For data set [3], the target named is T1, Sa.ClpP (Staphylococcus aureus, UniProt Q2G036).
T1 construct: Strep-tag (C); made in house; host or cells: E. coli SG1146a (lacks endogenous ClpP)
As to the kind of experiment: Thermal shift assay (differential scanning fluorimetry). The data set is classed as binding. The following applies: S. aureus ClpP 5 µM, ligand 200 µM, HEPES 100 mM pH 7, NaCl 150 mM, sypro orange 5x, 30-90 °C in 0.5 °C increments; mean ± SD of duplicates of at least two independent experiments. From the text: All concentrations are given as final concentrations. […]
real-time qPCR (Bio-Rad CF X96).
SD of duplicates of at least two independent experiments.
equilibrated Superdex 200 Increase 10/300 GL column (Cytiva). […]

The structures appear in SMILES notation. Starred links: 1 amine or outer side, 2 acyl side, 3 side chain; linkers in the order of their positions; H or OH if unused. Positions of bridges follow the written chain, without caps; N, C: chain ends. Non-standard residues stand in square brackets, D forms with d. Residues, ends and D or L forms follow the SMILES beside them. Phe(3,5-F2) = N[C@@H](Cc1cc(F)cc(F)c1)C(=O)O; CH2COCH2 = O=C(C[*:1])C[*:2]

T1 sequence (Q2G036 whole entry): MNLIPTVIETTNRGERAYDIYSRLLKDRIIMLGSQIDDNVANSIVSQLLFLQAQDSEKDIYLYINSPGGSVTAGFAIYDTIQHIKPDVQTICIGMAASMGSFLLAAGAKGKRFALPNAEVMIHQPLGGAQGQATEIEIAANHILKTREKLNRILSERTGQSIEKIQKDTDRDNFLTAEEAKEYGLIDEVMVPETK

Turning to `C=Cc1cc(CCSC[C@H](NC(C)=O)C(=O)NCC(=O)N[C@H](C(=O)NCC(=O)N[C@@H](C)C(=O)NCC(=O)N[C@@H](CS)C(N)=O)[C@@H](C)CC)nc(N(C)CC(=O)O)n1` [Ac-Cys-Gly-Ile-Gly-Ala-Gly-Cys-NH2], in data set [1] (30-membered ring), the ring closure, yield over several steps was 90.6%.
In the case of `CC[C@H](C)[C@H](NC(=O)CNC(=O)[C@H](CSCC(=O)CCl)NC(C)=O)C(=O)NCC(=O)N[C@@H](C)C(=O)NCC(=O)N[C@@H](CS)C(N)=O` [Ac-Cys-Gly-Ile-Gly-Ala-Gly-Cys-NH2], the ring closure, yield over several steps in data set [2] (26-membered ring) came out at 18.4%.
In the case of `C=Cc1cc(CCSC[C@H](NC(C)=O)C(=O)NCC(=O)N[C@H](C(=O)NCC(=O)N[C@H](Cc2ccccc2)C(=O)NCC(=O)N[C@@H](CS)C(N)=O)[C@@H](C)CC)nc(N(C)CC(=O)O)n1` [Ac-Cys-Gly-Ile-Gly-D-Phe-Gly-Cys-NH2], the ring closure, yield over several steps in data set [1] (30-membered ring) amounted to 61%.
As to `CC[C@H](C)[C@H](NC(=O)CNC(=O)[C@H](CSCC(=O)CCl)NC(C)=O)C(=O)NCC(=O)N[C@H](Cc1ccccc1)C(=O)NCC(=O)N[C@@H](CS)C(N)=O` [Ac-Cys-Gly-Ile-Gly-D-Phe-Gly-Cys-NH2], the ring closure, yield over several steps in data set [2] (26-membered ring) was determined as 46.6%.
Regarding `C=Cc1cc(CCSC[C@H](NC(C)=O)C(=O)NCC(=O)N[C@H](C(=O)NCC(=O)N[C@@H](Cc2cc(F)cc(F)c2)C(=O)NCC(=O)N[C@@H](CS)C(N)=O)[C@@H](C)CC)nc(N(C)CC(=O)O)n1` [Ac-Cys-Gly-Ile-Gly-Phe(3,5-F2)-Gly-Cys-NH2], in data set [1] (30-membered ring), the ring closure, yield over several steps came out at 14.1%.
Turning to `CC[C@H](C)[C@H](NC(=O)CNC(=O)[C@H](CSCC(=O)CCl)NC(C)=O)C(=O)NCC(=O)N[C@@H](Cc1cc(F)cc(F)c1)C(=O)NCC(=O)N[C@@H](CS)C(N)=O` [Ac-Cys-Gly-Ile-Gly-Phe(3,5-F2)-Gly-Cys-NH2], the ring closure, yield over several steps in data set [2] (26-membered ring) came to 43.3%.
For the compound `C=Cc1cc(CCSC[C@H](NC(C)=O)C(=O)NCC(=O)N[C@H](C(=O)NCC(=O)N[C@@H](Cc2ccccc2)C(=O)NCC(=O)N[C@@H](C)C(=O)N[C@@H](CS)C(N)=O)[C@@H](C)CC)nc(N(C)CC(=O)O)n1` [Ac-Cys-Gly-Ile-Gly-Phe-Gly-Ala-Cys-NH2], the ring closure, yield over several steps in data set [1] (33-membered ring) stood at 46.2%.
`CC[C@H](C)[C@H](NC(=O)CNC(=O)[C@H](CSCC(=O)CCl)NC(C)=O)C(=O)NCC(=O)N[C@@H](Cc1ccccc1)C(=O)NCC(=O)N[C@@H](C)C(=O)N[C@@H](CS)C(N)=O` [Ac-Cys-Gly-Ile-Gly-Phe-Gly-Ala-Cys-NH2]: the ring closure, yield over several steps in data set [2] (29-membered ring) is 48.3%.
On to `C=Cc1cc(CCSC[C@H](NC(C)=O)C(=O)NCC(=O)N[C@H](C(=O)NCC(=O)N[C@@H](Cc2ccccc2)C(=O)NCC(=O)N[C@@H](C)C(=O)N[C@H](C(=O)N[C@@H](CS)C(N)=O)[C@@H](C)O)[C@@H](C)CC)nc(N(C)CC(=O)O)n1` [Ac-Cys-Gly-Ile-Gly-Phe-Gly-Ala-Thr-Cys-NH2], for which the ring closure, yield over several steps in data set [1] (36-membered ring) came out at 34.3%.
As for `CC[C@H](C)[C@H](NC(=O)CNC(=O)[C@H](CSCC(=O)CCl)NC(C)=O)C(=O)NCC(=O)N[C@@H](Cc1ccccc1)C(=O)NCC(=O)N[C@@H](C)C(=O)N[C@H](C(=O)N[C@@H](CS)C(N)=O)[C@@H](C)O` [Ac-Cys-Gly-Ile-Gly-Phe-Gly-Ala-Thr-Cys-NH2], the ring closure, yield over several steps in data set [2] (32-membered ring) was 19%.
For `C=Cc1cc(CCSC[C@H](NC(C)=O)C(=O)NCC(=O)N[C@H](C(=O)NCC(=O)N[C@@H](Cc2ccccc2)C(=O)NCC(=O)N[C@@H](CS)C(N)=O)[C@@H](C)CC)nc(N(C)CC(=O)O)n1` [Ac-Cys-Gly-Ile-Gly-Phe-Gly-Cys-NH2], in data set [1] (30-membered ring), the ring closure, yield over several steps is 6.8%.
As for `CC[C@H](C)[C@H](NC(=O)CNC(=O)[C@H](CSCC(=O)CCl)NC(C)=O)C(=O)NCC(=O)N[C@@H](Cc1ccccc1)C(=O)NCC(=O)N[C@@H](CS)C(N)=O` [Ac-Cys-Gly-Ile-Gly-Phe-Gly-Cys-NH2], in data set [2] (26-membered ring), the ring closure, yield over several steps turned out to be 27.3%.
As for `C=Cc1cc(CCSC[C@H](NC(C)=O)C(=O)N[C@H](C(=O)NCC(=O)N[C@@H](Cc2ccccc2)C(=O)NCC(=O)N[C@@H](C)C(=O)N[C@@H](CS)C(N)=O)[C@@H](C)CC)nc(N(C)CC(=O)O)n1` [Ac-Cys-Ile-Gly-Phe-Gly-Ala-Cys-NH2], the ring closure, yield over several steps in data set [1] (30-membered ring) is 25.7%.
`CC[C@H](C)[C@H](NC(=O)[C@H](CSCC(=O)CCl)NC(C)=O)C(=O)NCC(=O)N[C@@H](Cc1ccccc1)C(=O)NCC(=O)N[C@@H](C)C(=O)N[C@@H](CS)C(N)=O` [Ac-Cys-Ile-Gly-Phe-Gly-Ala-Cys-NH2]: the ring closure, yield over several steps in data set [2] (26-membered ring) was found to be 13.5%.
Take `C=Cc1cc(CCSC[C@H](NC(C)=O)C(=O)N[C@H](C(=O)NCC(=O)N[C@@H](Cc2ccccc2)C(=O)NCC(=O)N[C@@H](C)C(=O)N[C@H](C(=O)N[C@@H](CS)C(N)=O)[C@@H](C)O)[C@@H](C)CC)nc(N(C)CC(=O)O)n1` [Ac-Cys-Ile-Gly-Phe-Gly-Ala-Thr-Cys-NH2]: the ring closure, yield over several steps in data set [1] (33-membered ring) came to 20.5%.
Consider `CC[C@H](C)[C@H](NC(=O)[C@H](CSCC(=O)CCl)NC(C)=O)C(=O)NCC(=O)N[C@@H](Cc1ccccc1)C(=O)NCC(=O)N[C@@H](C)C(=O)N[C@H](C(=O)N[C@@H](CS)C(N)=O)[C@@H](C)O` [Ac-Cys-Ile-Gly-Phe-Gly-Ala-Thr-Cys-NH2], for which, in data set [2] (29-membered ring), the ring closure, yield over several steps worked out at 55.3%.
Consider `C=Cc1cc(CCSC[C@H](NC(C)=O)C(=O)N[C@H](C(=O)NCC(=O)N[C@@H](Cc2ccccc2)C(=O)NCC(=O)N[C@@H](CS)C(N)=O)[C@@H](C)CC)nc(N(C)CC(=O)O)n1` [Ac-Cys-Ile-Gly-Phe-Gly-Cys-NH2], for which the ring closure, yield over several steps in data set [1] (27-membered ring) is 75.6%.
For `CC[C@H](C)[C@@H]1NC(=O)CNC(=O)[C@@H](NC(C)=O)CSCC(=O)CSC[C@@H](C(N)=O)NC(=O)CNC(=O)[C@H](Cc2cc(F)cc(F)c2)NC(=O)CNC1=O` [P9-B] (Ac-CGIG[Phe(3,5-F2)]GC-NH2; linker 1-7 via CH2COCH2), the “apparent increase in melting temperature of Sa.ClpP” value in data set [3] is 1.1 ± 0.2 °C.
